Columns and labels:
Assay in all cases: KINOMEscan competition binding
Settings in all cases: compound 10.0 µM
[1] = tested on: ABL1 (human), P00519 [T315I]
[2] = molecular target: ACVR2B (human) (UniProt Q13705)
[3] = molecular target: CAMK2G (human) (UniProt Q13555)
[4] = molecular target: CDC42BPA (human) (UniProt Q5VT25)
[5] = molecular target: CDC42BPG (human) (UniProt Q6DT37)
[6] = molecular target: CDK15 (human) (UniProt Q96Q40)
[7] = molecular target: CDK2 (human) (UniProt P24941)
[8] = molecular target: CHEK1 (human) (UniProt O14757)
[9] = molecular target: DAPK3 (human) (UniProt O43293)
[10] = tested on: EIF2AK4 KD2 (human), Q9P2K8 [S808G]
[11] = molecular target: EPHA5 (human) (UniProt P54756)
[12] = molecular target: EPHB2 (human) (UniProt P29323)
[13] = molecular target: FLT3 (human) (UniProt P36888)
[14] = tested on: FLT3 (human), P36888 [D835H]
[15] = molecular target: HCK (human) (UniProt P08631)
[16] = molecular target: HIPK2 (human) (UniProt Q9H2X6)
[17] = molecular target: MAP3K3 (human) (UniProt Q99759)
[18] = molecular target: MAP3K4 (human) (UniProt Q9Y6R4)
[19] = molecular target: MAP3K7 (human) (UniProt O43318)
[20] = molecular target: MAP3K9 (human) (UniProt P80192)
[21] = molecular target: MAPK6 (human) (UniProt Q16659)
[22] = molecular target: MKNK1 (human) (UniProt Q9BUB5)
[23] = molecular target: MST4 (human) (UniProt Q9P289)
[24] = molecular target: NEK6 (human) (UniProt Q9HC98)
[25] = molecular target: NIM1 (human) (UniProt Q8IY84)
[26] = molecular target: PAK1 (human) (UniProt Q13153)
[27] = molecular target: PI4KB (human) (UniProt Q9UBF8)
[28] = tested on: PIK3CA (human), P42336 [C420R]
[29] = molecular target: PKMYT1 (human) (UniProt Q99640)
[30] = molecular target: PRKAA1 (human) (UniProt Q13131)
[31] = molecular target: PRKD3 (human) (UniProt O94806)
[32] = tested on: RET (human), P07949 [V804L]
[33] = molecular target: RIOK1 (human) (UniProt Q9BRS2)
[34] = molecular target: RIOK2 (human) (UniProt Q9BVS4)
[35] = molecular target: RIPK4 (human) (UniProt P57078)
[36] = molecular target: SGK110 (human) (UniProt P0C264)
[37] = molecular target: SRC (human) (UniProt P12931)
[38] = molecular target: SRPK2 (human) (UniProt P78362)
[39] = molecular target: STK32C (human) (UniProt Q86UX6)
[40] = molecular target: TAOK3 (human) (UniProt Q9H2K8)
[41] = molecular target: TNK2 (human) (UniProt Q07912)

Sequence of PKMYT1 (human) (Q99640 whole entry, looked up): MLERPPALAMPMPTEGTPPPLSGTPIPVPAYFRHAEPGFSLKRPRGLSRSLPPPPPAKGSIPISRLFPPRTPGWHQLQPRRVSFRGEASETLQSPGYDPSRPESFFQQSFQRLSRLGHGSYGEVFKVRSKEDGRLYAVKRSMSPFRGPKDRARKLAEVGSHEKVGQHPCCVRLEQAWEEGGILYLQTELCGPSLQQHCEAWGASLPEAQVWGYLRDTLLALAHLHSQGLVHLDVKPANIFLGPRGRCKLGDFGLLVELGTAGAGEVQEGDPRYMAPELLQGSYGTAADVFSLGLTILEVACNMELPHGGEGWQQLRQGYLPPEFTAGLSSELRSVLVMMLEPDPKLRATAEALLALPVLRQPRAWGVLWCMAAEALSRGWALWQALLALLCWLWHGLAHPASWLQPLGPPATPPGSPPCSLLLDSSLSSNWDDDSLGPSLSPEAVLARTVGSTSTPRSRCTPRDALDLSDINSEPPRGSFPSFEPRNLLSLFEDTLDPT
Sequence of PRKAA1 (human) (Q13131 whole entry, looked up): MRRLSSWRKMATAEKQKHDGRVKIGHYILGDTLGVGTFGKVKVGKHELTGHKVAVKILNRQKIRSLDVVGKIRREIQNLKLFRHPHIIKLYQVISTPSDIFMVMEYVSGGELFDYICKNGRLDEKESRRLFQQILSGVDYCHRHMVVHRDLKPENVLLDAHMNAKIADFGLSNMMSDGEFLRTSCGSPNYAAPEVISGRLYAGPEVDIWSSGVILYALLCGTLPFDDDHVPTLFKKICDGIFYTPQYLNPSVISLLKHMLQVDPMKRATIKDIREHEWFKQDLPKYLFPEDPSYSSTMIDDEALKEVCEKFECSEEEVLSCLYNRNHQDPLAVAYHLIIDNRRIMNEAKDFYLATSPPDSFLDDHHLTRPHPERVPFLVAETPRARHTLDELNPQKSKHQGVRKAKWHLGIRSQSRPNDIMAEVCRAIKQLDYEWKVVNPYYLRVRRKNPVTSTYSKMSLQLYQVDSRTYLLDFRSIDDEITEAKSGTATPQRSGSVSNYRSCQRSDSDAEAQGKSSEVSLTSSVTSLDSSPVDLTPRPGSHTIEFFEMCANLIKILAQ
Sequence of RET (human), P07949 [V804L] (P07949 whole entry V804L, looked up): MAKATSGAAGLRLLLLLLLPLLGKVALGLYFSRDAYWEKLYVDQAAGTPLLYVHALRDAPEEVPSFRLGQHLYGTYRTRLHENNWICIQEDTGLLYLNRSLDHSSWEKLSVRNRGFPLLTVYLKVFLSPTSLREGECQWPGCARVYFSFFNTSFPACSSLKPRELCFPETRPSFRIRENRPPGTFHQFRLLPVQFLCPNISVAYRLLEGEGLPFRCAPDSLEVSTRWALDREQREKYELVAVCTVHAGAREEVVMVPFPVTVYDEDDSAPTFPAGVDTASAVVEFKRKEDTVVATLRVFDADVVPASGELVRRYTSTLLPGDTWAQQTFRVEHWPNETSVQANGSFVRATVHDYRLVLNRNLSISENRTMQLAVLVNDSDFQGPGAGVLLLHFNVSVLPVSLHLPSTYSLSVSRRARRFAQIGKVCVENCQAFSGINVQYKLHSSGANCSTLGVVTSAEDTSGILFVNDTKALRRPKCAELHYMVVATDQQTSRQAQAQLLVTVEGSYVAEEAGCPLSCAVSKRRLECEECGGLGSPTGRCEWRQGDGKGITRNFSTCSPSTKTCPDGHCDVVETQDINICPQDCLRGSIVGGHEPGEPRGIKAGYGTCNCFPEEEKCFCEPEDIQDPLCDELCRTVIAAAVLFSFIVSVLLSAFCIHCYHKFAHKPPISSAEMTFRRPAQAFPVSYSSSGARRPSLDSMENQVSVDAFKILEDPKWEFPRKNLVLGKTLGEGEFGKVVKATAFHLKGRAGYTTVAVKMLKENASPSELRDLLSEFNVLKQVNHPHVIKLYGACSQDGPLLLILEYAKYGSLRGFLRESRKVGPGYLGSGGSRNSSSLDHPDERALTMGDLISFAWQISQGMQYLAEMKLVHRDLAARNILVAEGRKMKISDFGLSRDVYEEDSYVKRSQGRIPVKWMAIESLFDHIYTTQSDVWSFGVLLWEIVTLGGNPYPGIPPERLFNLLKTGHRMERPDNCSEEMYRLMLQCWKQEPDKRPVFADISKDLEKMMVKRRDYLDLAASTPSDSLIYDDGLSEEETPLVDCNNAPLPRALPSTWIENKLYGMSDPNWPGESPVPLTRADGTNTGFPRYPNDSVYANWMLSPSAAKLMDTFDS
Sequence of RIPK4 (human) (P57078 whole entry, looked up): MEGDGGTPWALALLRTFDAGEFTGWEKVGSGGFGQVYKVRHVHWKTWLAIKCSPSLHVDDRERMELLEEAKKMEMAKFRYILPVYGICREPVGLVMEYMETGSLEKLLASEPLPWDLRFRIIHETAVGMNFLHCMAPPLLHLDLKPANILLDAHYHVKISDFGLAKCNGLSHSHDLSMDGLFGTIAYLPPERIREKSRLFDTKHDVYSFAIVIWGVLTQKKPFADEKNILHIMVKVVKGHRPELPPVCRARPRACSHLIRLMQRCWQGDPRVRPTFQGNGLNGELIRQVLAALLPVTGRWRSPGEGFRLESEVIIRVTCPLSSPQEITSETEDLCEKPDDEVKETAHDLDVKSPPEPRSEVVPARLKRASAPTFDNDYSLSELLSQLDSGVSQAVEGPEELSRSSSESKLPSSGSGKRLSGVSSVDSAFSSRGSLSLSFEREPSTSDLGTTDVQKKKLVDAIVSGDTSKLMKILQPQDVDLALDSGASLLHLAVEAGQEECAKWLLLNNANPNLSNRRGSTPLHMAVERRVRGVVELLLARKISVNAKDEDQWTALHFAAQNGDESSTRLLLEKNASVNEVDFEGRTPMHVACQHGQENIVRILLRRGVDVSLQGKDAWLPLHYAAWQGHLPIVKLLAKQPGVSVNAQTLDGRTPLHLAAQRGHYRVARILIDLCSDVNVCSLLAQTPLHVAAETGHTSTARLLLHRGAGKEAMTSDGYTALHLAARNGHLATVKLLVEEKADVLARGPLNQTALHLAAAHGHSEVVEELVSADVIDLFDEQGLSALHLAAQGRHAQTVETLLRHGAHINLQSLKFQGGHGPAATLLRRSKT
Sequence of HIPK2 (human) (Q9H2X6 whole entry, looked up): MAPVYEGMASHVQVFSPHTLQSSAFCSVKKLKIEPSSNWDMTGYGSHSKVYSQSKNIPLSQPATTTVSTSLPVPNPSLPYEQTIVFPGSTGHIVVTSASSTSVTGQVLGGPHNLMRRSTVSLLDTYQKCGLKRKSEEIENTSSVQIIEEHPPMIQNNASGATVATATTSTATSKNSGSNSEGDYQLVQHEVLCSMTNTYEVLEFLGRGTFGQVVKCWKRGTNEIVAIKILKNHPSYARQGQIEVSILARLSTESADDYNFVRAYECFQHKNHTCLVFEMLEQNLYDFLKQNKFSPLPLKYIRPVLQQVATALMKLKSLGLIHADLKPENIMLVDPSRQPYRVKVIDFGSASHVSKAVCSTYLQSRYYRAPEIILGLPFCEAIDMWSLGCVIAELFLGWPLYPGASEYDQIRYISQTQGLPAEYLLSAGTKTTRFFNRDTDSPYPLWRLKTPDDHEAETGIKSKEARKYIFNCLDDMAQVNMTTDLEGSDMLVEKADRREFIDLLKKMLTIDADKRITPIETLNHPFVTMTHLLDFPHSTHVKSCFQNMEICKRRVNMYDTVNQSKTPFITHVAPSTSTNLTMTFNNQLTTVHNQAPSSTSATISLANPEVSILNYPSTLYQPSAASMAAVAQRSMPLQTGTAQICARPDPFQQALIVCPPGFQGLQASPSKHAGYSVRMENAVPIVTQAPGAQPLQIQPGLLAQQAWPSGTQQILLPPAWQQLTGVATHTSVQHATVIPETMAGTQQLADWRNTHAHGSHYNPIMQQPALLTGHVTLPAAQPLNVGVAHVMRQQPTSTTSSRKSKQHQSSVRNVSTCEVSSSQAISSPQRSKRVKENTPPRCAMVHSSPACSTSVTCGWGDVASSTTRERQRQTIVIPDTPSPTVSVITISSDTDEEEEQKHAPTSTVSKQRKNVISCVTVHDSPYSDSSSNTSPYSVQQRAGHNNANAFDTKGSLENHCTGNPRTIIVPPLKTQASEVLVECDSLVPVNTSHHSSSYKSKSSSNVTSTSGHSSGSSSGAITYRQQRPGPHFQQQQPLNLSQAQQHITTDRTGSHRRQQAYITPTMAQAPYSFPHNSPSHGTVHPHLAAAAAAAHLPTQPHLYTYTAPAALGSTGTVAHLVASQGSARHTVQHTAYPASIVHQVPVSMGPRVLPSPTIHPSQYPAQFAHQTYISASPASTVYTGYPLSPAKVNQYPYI
Sequence of ACVR2B (human) (Q13705 whole entry, looked up): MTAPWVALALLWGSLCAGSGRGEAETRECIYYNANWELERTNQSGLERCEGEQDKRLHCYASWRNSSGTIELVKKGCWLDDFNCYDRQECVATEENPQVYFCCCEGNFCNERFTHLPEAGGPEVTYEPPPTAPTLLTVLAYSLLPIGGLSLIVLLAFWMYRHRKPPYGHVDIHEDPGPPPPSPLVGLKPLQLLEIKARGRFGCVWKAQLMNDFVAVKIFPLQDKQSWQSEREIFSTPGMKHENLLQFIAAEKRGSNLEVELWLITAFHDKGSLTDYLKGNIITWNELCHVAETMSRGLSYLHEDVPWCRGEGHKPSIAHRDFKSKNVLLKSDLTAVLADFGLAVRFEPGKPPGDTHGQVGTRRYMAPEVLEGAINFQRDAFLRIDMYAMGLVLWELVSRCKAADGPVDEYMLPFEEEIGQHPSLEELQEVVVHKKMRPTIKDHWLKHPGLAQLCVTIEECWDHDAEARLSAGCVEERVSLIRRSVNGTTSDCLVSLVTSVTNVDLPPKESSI
Sequence of SGK110 (human) (P0C264 whole entry, looked up): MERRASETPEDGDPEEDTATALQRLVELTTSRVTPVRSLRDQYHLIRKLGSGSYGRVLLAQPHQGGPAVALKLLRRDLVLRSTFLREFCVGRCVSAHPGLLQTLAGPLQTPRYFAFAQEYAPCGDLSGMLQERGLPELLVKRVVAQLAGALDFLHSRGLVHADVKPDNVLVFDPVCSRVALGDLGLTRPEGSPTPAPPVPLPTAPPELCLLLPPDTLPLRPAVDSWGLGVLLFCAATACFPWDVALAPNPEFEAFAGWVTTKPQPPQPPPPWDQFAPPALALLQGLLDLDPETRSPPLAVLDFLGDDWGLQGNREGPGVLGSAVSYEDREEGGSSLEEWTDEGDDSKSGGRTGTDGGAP

Cc1cnc(-c2cnc(NCCNc3ccc(C#N)cn3)nc2-c2ccc(Cl)cc2Cl)[nH]1 was tested, and the kinase still bound, per cent of control [1] was 100%, the kinase still bound, per cent of control [2] was 100% and the kinase still bound, per cent of control [3] was 100%. It also gave a kinase still bound, per cent of control [4] of 100%, a kinase still bound, per cent of control [5] of 100% and a kinase still bound, per cent of control [6] of 95%. The kinase still bound, per cent of control [7] was 54%, the kinase still bound, per cent of control [8] was 100% and the kinase still bound, per cent of control [9] was 83%. For the same molecule, the kinase still bound, per cent of control [10] was 100%, the kinase still bound, per cent of control [11] was 100% and the kinase still bound, per cent of control [12] was 100%. The kinase still bound, per cent of control [13] was 100%, the kinase still bound, per cent of control [14] was 74% and the kinase still bound, per cent of control [15] was 100%. It also gave a kinase still bound, per cent of control [16] of 100%, a kinase still bound, per cent of control [17] of 100% and a kinase still bound, per cent of control [18] of 100%. It also gave a kinase still bound, per cent of control [19] of 51%, a kinase still bound, per cent of control [20] of 55% and a kinase still bound, per cent of control [21] of 100%. It also gave a kinase still bound, per cent of control [22] of 100%, a kinase still bound, per cent of control [23] of 82% and a kinase still bound, per cent of control [24] of 100%. It also gave a kinase still bound, per cent of control [25] of 100%, a kinase still bound, per cent of control [26] of 100% and a kinase still bound, per cent of control [27] of 93%. It also gave a kinase still bound, per cent of control [28] of 100%, a kinase still bound, per cent of control [29] of 100% and a kinase still bound, per cent of control [30] of 82%. It also gave a kinase still bound, per cent of control [31] of 88%, a kinase still bound, per cent of control [32] of 100% and a kinase still bound, per cent of control [33] of 100%. It also gave a kinase still bound, per cent of control [34] of 22%, a kinase still bound, per cent of control [35] of 100% and a kinase still bound, per cent of control [36] of 100%. The kinase still bound, per cent of control [37] was 100%, the kinase still bound, per cent of control [38] was 100% and the kinase still bound, per cent of control [39] was 97%. It also gave a kinase still bound, per cent of control [40] of 13% and a kinase still bound, per cent of control [41] of 100%.
COc1ccc(CNC(=O)Nc2ncc([N+](=O)[O-])s2)cc1 showed a kinase still bound, per cent of control [1] of 100%, a kinase still bound, per cent of control [2] of 100% and a kinase still bound, per cent of control [3] of 100%. The kinase still bound, per cent of control [4] was 100%, the kinase still bound, per cent of control [5] was 100% and the kinase still bound, per cent of control [6] was 100%. The kinase still bound, per cent of control [7] was 74%, the kinase still bound, per cent of control [8] was 100% and the kinase still bound, per cent of control [9] was 81%. It also gave a kinase still bound, per cent of control [10] of 100%, a kinase still bound, per cent of control [11] of 100% and a kinase still bound, per cent of control [12] of 15%. It also gave a kinase still bound, per cent of control [13] of 86%, a kinase still bound, per cent of control [14] of 99% and a kinase still bound, per cent of control [15] of 100%. It also gave a kinase still bound, per cent of control [16] of 90%, a kinase still bound, per cent of control [17] of 97% and a kinase still bound, per cent of control [18] of 100%. The kinase still bound, per cent of control [19] was 88%, the kinase still bound, per cent of control [21] was 100% and the kinase still bound, per cent of control [22] was 100%. For the same molecule, the kinase still bound, per cent of control [23] was 99%, the kinase still bound, per cent of control [25] was 100% and the kinase still bound, per cent of control [26] was 94%. The kinase still bound, per cent of control [27] was 100%, the kinase still bound, per cent of control [28] was 95% and the kinase still bound, per cent of control [29] was 53%. It also gave a kinase still bound, per cent of control [30] of 100%, a kinase still bound, per cent of control [31] of 100% and a kinase still bound, per cent of control [32] of 100%. The kinase still bound, per cent of control [33] was 100%, the kinase still bound, per cent of control [34] was 23% and the kinase still bound, per cent of control [35] was 100%. It also gave a kinase still bound, per cent of control [36] of 83%, a kinase still bound, per cent of control [37] of 78% and a kinase still bound, per cent of control [38] of 81%. For the same molecule, the kinase still bound, per cent of control [39] was 76%, the kinase still bound, per cent of control [40] was 54% and the kinase still bound, per cent of control [41] was 96%.
